The values that follow come from patent US20150284353A1, “Sesquiterpene lactone-based pharmaceutical composition for treating gastrointestinal diseases” (CHO DANG PHARM. CO., LTD., priority 2012, published 2015).

“Also recorded” adds a separate entry of the source. Marks after values point to notes of the source that are not given here.

The subject of series [1] is HCl-Ethanol inducing gastritis model. In words: HCl-Ethanol inducing gastritis model. The format is in vivo, white rats. The conditions noted are these: for Lesion inhibition rate: Table 2, ineffective compounds, dose not given; for ED50: regression analysis, read-out: 50% effective dose (ED50). The procedure: After white rats have been fasted for 24 hours, CD-101, CD-102 and CD-103 compound have been orally administered according to method disclosed in Mizui et al., Jap. J. Pharmacol. 33: pp. 939-945 (1983). After 1 hour, 1.5 ml of 60% ethanol including 150 mM HCl has been orally administered to each animal. 1 hour later, animals have been sacrificed by cervical dislocation. After removing the stomach, the stomach has been fixed by injection of 13 ml of 2% formalin for 1 hour. After fixed stomach has been spread out, the lesion area has been measured using the photo by digital camera. Computer program Image J 1.38 (NIH, Bethesda, Md.) has been applied for measuring gastric lesion area (mm^2). The lesion inhibition rate has been calculated according to following equation. Further, 50% effective dose (ED50) has been also calculated using regression analysis.
Lesion inhibition rate(%)={gastric lesion area of control group(mm^2)−gastric lesion area of drug administration group(mm^2)}/gastric lesion area of control group(mm^2)×100

Series [2] concerns Chinese hamster lung (CHL) cell. As to the kind of experiment: Chromosomal aberration test. Type of series: cell-based. The conditions noted are these: for induction of chromosomal aberration: CHL cell. The source says:
For measuring the induction of chromosomal aberration, the chromosomal aberration test has been carried out using Chinese hamster lung (CHL) cell. 2 kinds of methods have been adopted, such as, metabolic activation method (+S9) using metabolic activation system and direct method (−S9) without metabolic activation system.
For determining the test material reacting concentration, the cell growth inhibition test has been carried out. The test material has been dissolved and diluted in dimethyl sulfoxide (DMSO). Regardless of metabolic activation system, 12 concentration steps (2.43, 4.87, 9.75, 19.5, 39.1, 78.1, 156.3, 312.5, 625, 1250, 2500, 5000 μg/ml) of test material have been prepared. The cells have been cultured for 24 hours as the same way of main test. […] The medium has been further cultured for 18 hours.
Based upon the data of cell growth inhibition test, maximum concentration has been determined when the cell growth has been inhibited up to 50% as the relative cell numbers.
Regardless of metabolic activation system, the test materials have been prepared after 24 hours from the initiation of test. Then, the number of chromosomal aberration has been counted.

For series [3], the system named is indomethacin inducing stomach ulcer model. In words: indomethacin inducing stomach ulcer model. Type of series: in vivo, white rats. The conditions noted are these: oral; for ED50: regression analysis, read-out: 50% effective dose (ED50). The procedure: After white rats have been fasted for 24 hours, CD-101, CD-102 and CD-103 compound have been orally administered according to method disclosed in Yamasaki et al., Jap. J. Pharmacol. 49: pp. 441-448 (1989). After 1 hour, indomethacin (50 mg/kg) has been orally administered to each animal. After fasting for 5 hours, animals have been sacrificed by cervical dislocation. After removing the stomach, the stomach has been fixed by injection of 13 ml of 2% formalin for 1 hour. After fixed stomach has been spread out, the lesion area has been measured using the photo by digital camera. Computer program Image J 1.38 (NIH, Bethesda, Md.) has been applied for measuring gastric lesion area (mm^2). The lesion inhibition rate and 50% effective dose (ED50) have been calculated as the same manner of HCl-EtOH model.

[4] abbreviates: Rattus norvegicus, dose 1 mg/kg, read-out: Lesion inhibition rate.
[5] abbreviates: Rattus norvegicus, dose 3 mg/kg, read-out: Lesion inhibition rate.
The mark [6] stands for this setting: Rattus norvegicus, dose 10 mg/kg, read-out: Lesion inhibition rate.
[7] abbreviates: Rattus norvegicus, oral, dose 1 mg/kg, read-out: Lesion inhibition rate.
[8] abbreviates: Rattus norvegicus, oral, dose 3 mg/kg, read-out: Lesion inhibition rate.
Where [9] appears, read: Rattus norvegicus, oral, dose 10 mg/kg, read-out: Lesion inhibition rate.

Take `CO[C@]1(C)CC[C@H]2C(CN(C)CCO)C(=O)O[C@@H]2[C@@H](O)[C@]2(C)CC[C@H]21` (stereo partly drawn): the Lesion inhibition rate result in series [1] is given as “no effect”.
Turning to `CO[C@]1(C)CC[C@H]2C(CN(C)CCO)C(=O)O[C@@H]2[C@@H]2[C@H]1CC[C@@]2(C)O` (stereo partly drawn), the Lesion inhibition rate entry in series [1] is “no effect”.
Consider `C=C1CC[C@@H]2[C@](C)(CO)[C@H](O)CC[C@@]2(C)[C@@H]1C/C=C1/C(=O)OC[C@H]1O`, for which the Lesion inhibition rate entry in series [1] is reported as “no effect”.
For `CN(C)c1ccc(/C=C2\CCOC2=O)cc1`, the Lesion inhibition rate result in series [1] is listed as “no effect”.
For the compound `CC(C)=C1C(=O)COC1=O`, the Lesion inhibition rate entry in series [1] is reported as “no effect”.
For the compound `CC1=C2C3OC(=O)[C@@H](C)[C@@H]3CC[C@@]2(C)C=CC1=O` (stereo partly drawn), in series [1], the Lesion inhibition rate entry is reported as “no effect”.
Turning to `C=C1C(=O)O[C@@H]2[C@@H](O)[C@]3(C)CC[C@H]3[C@](C)(OC)CC[C@@H]12` [CD-101], the “Results (chromosomal aberration)” value was “negative” in series [2] (+S9, dose 10 μg/ml); “negative” in series [2] (+S9, dose 20 μg/ml); “negative” in series [2] (+S9, dose 40 μg/ml); “negative” in series [2] (−S9, dose 2.5 μg/ml); “negative” in series [2] (−S9, dose 5 μg/ml); “negative” in series [2] (−S9, dose 10 μg/ml). Also, the “induction of chromosomal aberration” value in series [2] is recorded as “neither cytotoxicity nor chromosomal aberration; also recorded: do not induce the chromosomal aberration”. For the same compound, the figures for the inhibition at 1 mg/kg in series [3] (setting [4]) and in series [1] (setting [7]) were 26.9% and 42.3%, respectively. For the same compound, the results for the inhibition at 3 mg/kg in series [3] (setting [5]) and in series [1] (setting [8]) were 56.6% and 74.7%, respectively. In addition, the inhibition (commonly the percentage by which the read-out fell short of the control) at 10 mg/kg in series [3] (setting [6]) came out at 73.1%; in series [1] (setting [9]) it was 91.8%. For the same compound, the ED50 (in general, the dose at which the effect has come halfway, by size or by number of responders) in series [3] (Rattus norvegicus) was determined as 2.78 ± 0.1 mg/kg; in series [1] (Rattus norvegicus, oral) it was 1.24 ± 0.1 mg/kg. Also, the Gastric lesion area in series [3] (dose 1 mg/kg) is listed as 43.8 ± 7.7 mm^2; in series [3] (dose 3 mg/kg), 26.0 ± 4.7* mm^2; in series [3] (dose 10 mg/kg) it was 16.1 ± 4.8* mm^2; in series [1] (oral, dose 1 mg/kg), 135.1 ± 43.1 mm^2; in series [1] (oral, dose 3 mg/kg) it was 59.3 ± 23.5* mm^2; in series [1] (oral, dose 10 mg/kg), 19.2 ± 11.7* mm^2.
As for `C=C1CC[C@H]2C(=C)C(=O)O[C@@H]2C2[C@H]1CC[C@@]2(C)O` (stereo partly drawn) [CD-102], the “Results (chromosomal aberration)” value in series [2] (+S9, dose 5 μg/ml) is listed as “negative”; in series [2] (+S9, dose 10 μg/ml) it was “negative”; in series [2] (+S9, dose 20 μg/ml), “negative”; in series [2] (−S9, dose 1.25 μg/ml) it was “negative”; in series [2] (−S9, dose 2.5 μg/ml), “negative”; in series [2] (−S9, dose 5 μg/ml), “negative”. Besides, the “induction of chromosomal aberration” value in series [2] is given as “do not induce the chromosomal aberration”. The values for the inhibition at 1 mg/kg in series [3] (setting [4]) and in series [1] (setting [7]) were 41.6% and 43%, respectively. In addition, the inhibition at 3 mg/kg in series [3] (setting [5]) was 56.1%; in series [1] (setting [8]) it was 70.4%. For the same compound, the inhibition at 10 mg/kg was determined as 77.2% in series [3] (setting [6]) and 94.9% in series [1] (setting [9]). Besides, the ED50 in series [3] (Rattus norvegicus) turned out to be 1.82 mg/kg; in series [1] (Rattus norvegicus, oral), 1.31 mg/kg. Further, the Gastric lesion area is on record as 35.0 ± 5.2 mm^2 in series [3] (dose 1 mg/kg); 26.3 ± 6.8* mm^2 in series [3] (dose 3 mg/kg); 13.6 ± 2.9* mm^2 in series [3] (dose 10 mg/kg); 133.5 ± 21.0* mm^2 in series [1] (oral, dose 1 mg/kg); 69.4 ± 18.4* mm^2 in series [1] (oral, dose 3 mg/kg); 11.9 ± 10.0* mm^2 in series [1] (oral, dose 10 mg/kg).
For `C=C1C(=O)O[C@@H]2[C@@H]3[C@@H](CC[C@@]3(C)O)[C@](C)(OC)CC[C@@H]12` [CD-103], the “Results (chromosomal aberration)” value in series [2] (+S9, dose 2.5 μg/ml) is “negative”; in series [2] (+S9, dose 5 μg/ml), “negative”; in series [2] (+S9, dose 10 μg/ml) it was “negative”; in series [2] (−S9, dose 0.625 μg/ml) it was “negative”; in series [2] (−S9, dose 1.25 μg/ml) it was “negative”; in series [2] (−S9, dose 2.5 μg/ml) it was “negative”. Moreover, the “induction of chromosomal aberration” value in series [2] is “do not induce the chromosomal aberration”. Further, the figures for the inhibition at 1 mg/kg in series [3] (setting [4]) and in series [1] (setting [7]) were 37.9% and 56.9%, respectively. The inhibition at 3 mg/kg in series [3] (setting [5]) was determined as 57.3%; in series [1] (setting [8]), 66.9%. For the same compound, the inhibition at 10 mg/kg in series [3] (setting [6]) turned out to be 74%; in series [1] (setting [9]), 99.5%. Also, the ED50 was found to be 2.06 mg/kg in series [3] (Rattus norvegicus) and 2.55 mg/kg in series [1] (Rattus norvegicus, oral). For the same compound, the Gastric lesion area is listed as 37.2 ± 7.0 mm^2 in series [3] (dose 1 mg/kg); 25.6 ± 4.7* mm^2 in series [3] (dose 3 mg/kg); 15.6 ± 3.1* mm^2 in series [3] (dose 10 mg/kg); 80.8 ± 19.4* mm^2 in series [1] (oral, dose 1 mg/kg); 62.1 ± 32.2* mm^2 in series [1] (oral, dose 3 mg/kg); 1.0 ± 0.4* mm^2 in series [1] (oral, dose 10 mg/kg). In addition, in series [1] (Rattus norvegicus, oral, 30 mg/kg administration group, read-out: lesion inhibition rate), the inhibition at 30 mg/kg came out at 99.5%.
On to `CO[C@@]12[C@H](COC(N)=O)C3=C(C(=O)C(C)=C(N)C3=O)N1C[C@@H]1N[C@@H]12` [Mitomycin C, reference compound], for which, in series [2] (−S9, dose 0.5 μg/ml), the “Results (chromosomal aberration)” value is given as “positive”.
As for `O=C(NC(Cc1cc(=O)[nH]c2ccccc12)C(=O)O)c1ccc(Cl)cc1` (stereo not drawn) [Rebamipide, reference compound], the inhibition at 50 mg/kg in series [3] (Rattus norvegicus, dose 50 mg/kg, read-out: Lesion inhibition rate) came to 49.6%; in series [1] (Rattus norvegicus, oral, dose 50 mg/kg, read-out: Lesion inhibition rate), 30%. The Gastric lesion area was 30.2 ± 6.4* mm^2 in series [3] (dose 50 mg/kg) and 163.9 ± 15.6 mm^2 in series [1] (oral, dose 50 mg/kg).
For `C=C1C(=O)O[C@@H]2/C=C(\C)CC/C=C(\C)C[C@@H](OC(C)=O)C12` (stereo partly drawn) [reference compound], the “Result (chromosomal aberration test)” value is “positive positive” in series [2] (Table 5, + S9) and “positive positive” in series [2] (Table 5, − S9).
Consider `C=C1C(=O)O[C@@H]2/C=C(\C)CCC(O)C(C)(O)C[C@@H](OC(C)=O)C12` (stereo partly drawn) [reference compound], for which the “Result (chromosomal aberration test)” value in series [2] (Table 5, + S9) is on record as “positive positive”; in series [2] (Table 5, − S9), “positive positive”.
Consider `CC(=O)O[C@@H]1/C=C(\C)CCC/C(C)=C/[C@H]2OC(=O)[C@H](CN(C)C)C12` (stereo partly drawn) [reference compound], for which the “Result (chromosomal aberration test)” value is recorded as “positive positive” in series [2] (Table 5, + S9) and “positive positive” in series [2] (Table 5, − S9).
